{
  "source": "paper PMC12186844",
  "about": "(ACS Chemical Neuroscience, 2025)",
  "key": {"SNAP-D2SR C118^3.36A": {"molecular_target": "T1, SNAP-D2SR C118^3.36A (Homo sapiens, UniProt P14416, C118A)", "T1 sequence (P14416 1-414 isoform P14416-2 C118A)": "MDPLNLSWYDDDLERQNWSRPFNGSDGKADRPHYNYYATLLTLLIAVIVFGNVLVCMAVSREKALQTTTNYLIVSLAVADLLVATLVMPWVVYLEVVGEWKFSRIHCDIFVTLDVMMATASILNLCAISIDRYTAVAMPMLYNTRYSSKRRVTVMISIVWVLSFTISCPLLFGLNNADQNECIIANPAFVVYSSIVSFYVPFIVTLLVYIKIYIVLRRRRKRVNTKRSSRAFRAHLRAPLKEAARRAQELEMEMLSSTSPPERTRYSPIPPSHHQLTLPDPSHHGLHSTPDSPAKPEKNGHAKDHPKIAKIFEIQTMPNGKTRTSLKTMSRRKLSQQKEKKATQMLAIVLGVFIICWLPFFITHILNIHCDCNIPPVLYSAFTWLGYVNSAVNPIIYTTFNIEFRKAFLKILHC", "assay": "cell membrane [3H]spiperone assay", "method": "(§1) Flp-In-CHO cells stably expressing the wild-type or mutant DRs were grown to 90% confluence in 175 cm^2 cell culture flasks. The cells were harvested in PBS containing 2 mM EDTA and centrifuged at 300g for 3 min. The resulting pellet was resuspended in ice-cold assay buffer (20 mM HEPES, 100 mM NaCl, 6 mM MgCl2, 1 mM EGTA, and 1 mM EDTA, pH 7.4), and the centrifugation step was repeated. The intact cell pellet was then resuspended in assay buffer and homogenized using a Polytron homogenizer. After centrifugation (1000g, 10 min), the pellet was discarded, and the supernatant was recentrifuged at 30,000g for 1 h at 4 °C using a Sorvall Evolution RC ultracentrifuge (Thermo Scientific). The resulting pellet was resuspended in assay buffer and stored in 250 μL aliquots at −80 °C. Membrane protein concentration was determined using a Pierce’s BCA protein assay kit (Thermo Fisher, Melbourne).\n(§2) [^3H]­Spiperone binding experiments using cell membranes were conducted in a 200 μL reaction volume in assay buffer (20 mM HEPES, 100 mM NaCl, 6 mM MgCl2, 1 mM EGTA, and 1 mM EDTA, pH 7.4) containing 100 μM GppNHp and 0.1% ascorbic acid in 96-well plates. […] In all cases, nonspecific binding was determined in the presence of 10 μM haloperidol. […] Filter bound radioactivity was detected as a chemiluminescence after the addition of MicroScint-20 (Revvity) in a MicroBeta plate counter (Revvity). […]"}, "SNAP-D2SR L76^2.46A": {"molecular_target": "SNAP-D2SR L76^2.46A (Homo sapiens, UniProt P14416, L76A)", "sequence (P14416 1-414 isoform P14416-2 L76A)": "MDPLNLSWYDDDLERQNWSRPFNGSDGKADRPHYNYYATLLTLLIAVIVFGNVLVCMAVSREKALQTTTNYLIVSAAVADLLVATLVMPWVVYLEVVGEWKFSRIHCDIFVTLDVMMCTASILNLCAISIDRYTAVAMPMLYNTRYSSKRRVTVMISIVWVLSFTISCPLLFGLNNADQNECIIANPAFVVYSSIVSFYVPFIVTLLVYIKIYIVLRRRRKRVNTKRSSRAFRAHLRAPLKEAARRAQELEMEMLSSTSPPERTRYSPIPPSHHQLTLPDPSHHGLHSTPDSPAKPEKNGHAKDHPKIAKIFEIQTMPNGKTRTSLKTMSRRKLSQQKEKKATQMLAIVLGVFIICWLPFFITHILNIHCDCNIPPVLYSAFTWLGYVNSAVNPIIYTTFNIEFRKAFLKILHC", "assay": "cell membrane [3H]spiperone assay", "method": "as §1, §2"}, "D2LR": {"molecular_target": "D2LR (Homo sapiens, UniProt P14416)", "sequence (P14416 whole entry)": "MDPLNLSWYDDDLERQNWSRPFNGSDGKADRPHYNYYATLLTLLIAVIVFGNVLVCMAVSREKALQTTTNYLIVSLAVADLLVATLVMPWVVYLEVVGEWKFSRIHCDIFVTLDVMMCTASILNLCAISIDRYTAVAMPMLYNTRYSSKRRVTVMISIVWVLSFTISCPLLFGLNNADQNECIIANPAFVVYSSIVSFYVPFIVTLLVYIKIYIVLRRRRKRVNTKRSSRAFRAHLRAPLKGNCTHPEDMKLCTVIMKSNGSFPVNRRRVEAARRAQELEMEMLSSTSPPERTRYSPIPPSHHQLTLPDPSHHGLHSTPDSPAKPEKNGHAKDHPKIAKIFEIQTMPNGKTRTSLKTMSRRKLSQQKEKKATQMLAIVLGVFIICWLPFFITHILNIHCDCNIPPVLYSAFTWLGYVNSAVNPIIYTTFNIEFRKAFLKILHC", "assay": "inhibition of forskolin-stimulated cAMP production, BRET biosensor;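 also: Flp-In-CHO cells stably expressing CAMYEL cAMP BRET sensor, agonist plus 10 µM forskolin, net BRET after forskolin-vehicle subtraction, parameters from complete operational model of allosterism and agonism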", "format": "cell-based", "method": "(§3) Flp-In-CHO cells stably coexpressing the CAMYEL biosensor and DRs were plated into white 96-well CulturPlates (Revvity) and grown overnight. The cells were equilibrated in Hank’s balanced salt solution (HBSS) at 37 °C (or 25 °C when indicated) before starting the experiment. The cells were costimulated with the agonists and 10 μM forskolin for the indicated time frames when the BRET readings were captured. Coelenterazine (Nanolight Technology, AZ) was added at a final concentration of 5 μM at least 3 min prior to measurement. […] Net BRET was determined by subtraction of the vehicle control coadded with 10 μM forskolin.\n(§4) Dose–response curves were fitted using the following three-parameter equation: response=bottom+top−bottom/1+10^(logEC50−log[A]) 5 where top and bottom represent the maximal and minimal asymptote of the dose response curve, [A] is the molar concentration of the agonist, and EC50 is the molar concentration of the agonist required to give a response half-way between bottom and top."}, "SNAP-D2SR I128^3.46A [1]": {"molecular_target": "T2, SNAP-D2SR I128^3.46A (Homo sapiens, UniProt P14416, I128A)", "T2 sequence (P14416 1-414 isoform P14416-2 I128A)": "T1 sequence (P14416 1-414 isoform P14416-2 C118A) with A118C, I128A", "assay": "cell membrane [3H]spiperone assay", "method": "as §1, §2"}, "D4.4R": {"molecular_target": "D4.4R (Homo sapiens, UniProt P21917)", "sequence (P21917 whole entry)": "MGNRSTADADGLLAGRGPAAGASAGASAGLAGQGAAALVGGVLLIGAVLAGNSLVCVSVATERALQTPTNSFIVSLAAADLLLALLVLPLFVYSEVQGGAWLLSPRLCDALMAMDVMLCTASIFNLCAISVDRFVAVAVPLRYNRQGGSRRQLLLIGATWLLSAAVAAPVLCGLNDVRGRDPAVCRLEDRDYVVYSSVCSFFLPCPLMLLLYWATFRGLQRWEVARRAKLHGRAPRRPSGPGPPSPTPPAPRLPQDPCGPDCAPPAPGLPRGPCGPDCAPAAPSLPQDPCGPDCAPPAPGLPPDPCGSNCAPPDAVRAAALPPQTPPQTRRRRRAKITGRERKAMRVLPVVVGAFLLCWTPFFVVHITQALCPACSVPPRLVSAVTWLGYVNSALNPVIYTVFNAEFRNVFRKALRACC", "assay": "cell membrane [3H]spiperone binding assay", "method": "as §1\n[^3H]­Spiperone binding experiments using cell membranes were conducted in a 200 μL reaction volume in assay buffer (20 mM HEPES, 100 mM NaCl, 6 mM MgCl2, 1 mM EGTA, and 1 mM EDTA, pH 7.4) containing 100 μM GppNHp and 0.1% ascorbic acid in 96-well plates. […] In all cases, nonspecific binding was determined in the presence of 10 μM haloperidol. […] Filter bound radioactivity was detected as a chemiluminescence after the addition of MicroScint-20 (Revvity) in a MicroBeta plate counter (Revvity)."}, "SNAP-D2SR W100^ECL1A": {"molecular_target": "SNAP-D2SR W100^ECL1A (Homo sapiens, UniProt P14416, W100A)", "sequence (P14416 1-414 isoform P14416-2 W100A)": "as the sequence (P14416 1-414 isoform P14416-2 L76A) above, with A76L, W100A counted along it", "assay": "functional cAMP assay, BRET biosensor", "format": "cell-based", "method": "Flp-In-CHO cells stably coexpressing the CAMYEL biosensor and DRs were plated into white 96-well CulturPlates (Revvity) and grown overnight. The cells were equilibrated in Hank’s balanced salt solution (HBSS) at 37 °C (or 25 °C when indicated) before starting the experiment. The cells were costimulated with the agonists and 10 μM forskolin for the indicated time frames when the BRET readings were captured. Coelenterazine (Nanolight Technology, AZ) was added at a final concentration of 5 μM at least 3 min prior to measurement. […] Net BRET was determined by subtraction of the vehicle control coadded with 10 μM forskolin. For phenoxybenzamine alkylation experiments, the cells were treated with 0.1, 0.3, or 1 μM phenoxybenzamine (Sigma-Aldrich) diluted in HBSS and equilibrated at 37 °C for 30 min prior to the commencement of the assay.\nas §4"}, "SNAP-D2SR F50^1.48A": {"molecular_target": "SNAP-D2SR F50^1.48A (Homo sapiens, UniProt P14416, F50A)", "sequence (P14416 1-414 isoform P14416-2 F50A)": "as the sequence (P14416 1-414 isoform P14416-2 L76A) above, with F50A, A76L counted along it", "assay": "functional cAMP assay, BRET biosensor", "format": "cell-based", "parameters": "expressed in transfected cells", "method": "as §3, §4"}, "SNAP-D2SR I128^3.46A [2]": {"molecular_target": "T2, SNAP-D2SR I128^3.46A", "assay": "functional cAMP assay, BRET biosensor", "format": "cell-based", "method": "as §3, §4"}, "SNAP-D2SR G51^1.49A": {"molecular_target": "SNAP-D2SR G51^1.49A (Homo sapiens, UniProt P14416, G51A)", "sequence (P14416 1-414 isoform P14416-2 G51A)": "as the sequence (P14416 1-414 isoform P14416-2 L76A) above, with G51A, A76L counted along it", "assay": "cell membrane [3H]spiperone assay", "method": "as §1, §2"}, "SNAP-D2SR N52^1.50A": {"molecular_target": "SNAP-D2SR N52^1.50A (Homo sapiens, UniProt P14416, N52A)", "sequence (P14416 1-414 isoform P14416-2 N52A)": "as the sequence (P14416 1-414 isoform P14416-2 L76A) above, with N52A, A76L counted along it", "assay": "functional cAMP assay, BRET biosensor", "format": "cell-based", "method": "as §3, §4"}, "[3]": {"settings": "with S-(3)-PPP, listed as D2 PAM"}, "[4]": {"settings": "read-out: D2 PAM2 KB (converted)"}},
  "note": "Where a chain is given by its changes, count along the chain named.",
  "data": [
    {"smiles": "COc1cc(CO)c(F)cc1C(=O)n1ccc2c(F)cccc21", "note": "[D2 PAM2, [5-fluoro-4-(hydroxymethyl)-2-methoxyphenyl]-(4-fluoro-1H-indol-1-yl)methanone]", "values": [
      {"measurement": "fold shift + 10 μM PAM", "setting": "SNAP-D2SR C118^3.36A; shift of DA IC50", "result": 2, "unit": "fold"},
      {"measurement": "ΔpIC50 + 10 μM PAM", "setting": "SNAP-D2SR C118^3.36A; shift of DA pIC50", "result": "0.31 ± 0.10"},
      {"measurement": "fold shift + 10 μM PAM", "setting": "SNAP-D2SR L76^2.46A; shift of DA IC50", "result": 3.5, "unit": "fold"},
      {"measurement": "ΔpIC50 + 10 μM PAM", "setting": "SNAP-D2SR L76^2.46A; shift of DA pIC50", "result": "0.55 ± 0.07"},
      {"measurement": "agonism, fold lower than that of aripiprazole", "setting": "D2LR; D2 PAM2 alone, high D2R expression levels", "result": "approximately 2 fold"},
      {"measurement": "pKB", "setting": "D2LR; cAMP", "result": "5.37 ± 0.04"},
      {"measurement": "LogτB", "setting": "D2LR; cAMP, intrinsic efficacy", "result": "-0.96 ± 0.04"},
      {"measurement": "Logαβ", "setting": "D2LR; cAMP, with dopamine", "result": "1.41 ± 0.04"},
      {"measurement": "Kb", "setting": "D2LR; operational model of allostery, with DA", "result": 5.5, "unit": "µM"},
      {"measurement": "Logαβ", "setting": "D2LR; with S-(3)-PPP", "result": "1.46 ± 0.16"},
      {"measurement": "Logβ", "setting": "D2LR; with S-(3)-PPP", "result": 1.06},
      {"measurement": "β", "setting": "D2LR; with S-(3)-PPP", "result": 11.5},
      {"measurement": "αβ", "setting": "D2LR; [3]", "result": 28},
      {"measurement": "β", "setting": "D2LR; [3]", "result": 11},
      {"measurement": "Logαβ", "setting": "D2LR; with apomorphine", "result": "1.21 ± 0.13"},
      {"measurement": "Logβ", "setting": "D2LR; with apomorphine", "result": 0.16},
      {"measurement": "αβ", "setting": "D2LR; with apomorphine", "result": 16},
      {"measurement": "β", "setting": "D2LR; with apomorphine", "result": 1.4},
      {"measurement": "Logαβ", "setting": "D2LR; with aripiprazole", "result": "1.61 ± 0.14"},
      {"measurement": "Logβ", "setting": "D2LR; with aripiprazole", "result": 1.18},
      {"measurement": "αβ", "setting": "D2LR; with aripiprazole", "result": 41},
      {"measurement": "β", "setting": "D2LR; with aripiprazole", "result": 15},
      {"measurement": "Logαβ", "setting": "D2LR; with bromocriptine", "result": "0.76 ± 0.13"},
      {"measurement": "Logβ", "setting": "D2LR; with bromocriptine", "result": 0.49},
      {"measurement": "αβ", "setting": "D2LR; with bromocriptine", "result": 5.8},
      {"measurement": "β", "setting": "D2LR; with bromocriptine", "result": 3.1},
      {"measurement": "Logαβ", "setting": "D2LR; with dopamine", "result": "1.35 ± 0.10"},
      {"measurement": "Logβ", "setting": "D2LR; with dopamine", "result": 0.02},
      {"measurement": "αβ", "setting": "D2LR; with dopamine", "result": 22},
      {"measurement": "β", "setting": "D2LR; with dopamine", "result": 1},
      {"measurement": "β", "setting": "D2LR; with dopamine, listed as D2 PAM", "result": 1.0},
      {"measurement": "Logαβ", "setting": "D2LR; with lisuride", "result": "0.66 ± 0.06"},
      {"measurement": "Logβ", "setting": "D2LR; with lisuride", "result": 0.11},
      {"measurement": "αβ", "setting": "D2LR; with lisuride", "result": 4.6},
      {"measurement": "β", "setting": "D2LR; with lisuride", "result": 1.3},
      {"measurement": "Logαβ", "setting": "D2LR; with pergolide", "result": "1.50 ± 0.15"},
      {"measurement": "Logβ", "setting": "D2LR; with pergolide", "result": 0.26},
      {"measurement": "αβ", "setting": "D2LR; with pergolide", "result": 32},
      {"measurement": "β", "setting": "D2LR; with pergolide", "result": 1.8},
      {"measurement": "Logαβ", "setting": "D2LR; with pramipexole", "result": "1.37 ± 0.12"},
      {"measurement": "Logβ", "setting": "D2LR; with pramipexole", "result": 0.16},
      {"measurement": "αβ", "setting": "D2LR; with pramipexole", "result": 23},
      {"measurement": "β", "setting": "D2LR; with pramipexole", "result": 1.4},
      {"measurement": "Logαβ", "setting": "D2LR; with ropirinole", "result": "1.67 ± 0.12"},
      {"measurement": "Logβ", "setting": "D2LR; with ropirinole", "result": 0.53},
      {"measurement": "αβ", "setting": "D2LR; with ropirinole", "result": 47},
      {"measurement": "β", "setting": "D2LR; with ropirinole", "result": 3.4},
      {"measurement": "Logαβ", "setting": "D2LR; with rotigotine", "result": "1.17 ± 0.09"},
      {"measurement": "Logβ", "setting": "D2LR; with rotigotine", "result": -0.20},
      {"measurement": "αβ", "setting": "D2LR; with rotigotine", "result": 15},
      {"measurement": "β", "setting": "D2LR; with rotigotine", "result": 0.6},
      {"measurement": "fold shift + 10 μM PAM", "setting": "SNAP-D2SR I128^3.46A [1]; shift of DA IC50", "result": 1.1, "unit": "fold"},
      {"measurement": "ΔpIC50 + 10 μM PAM", "setting": "SNAP-D2SR I128^3.46A [1]; shift of DA pIC50", "result": "0.06 ± 0.13"},
      {"measurement": "ability to potentiate DA binding at the D4R", "setting": "D4.4R", "result": "no activity was observed"},
      {"measurement": "Kb", "setting": "SNAP-D2SR W100^ECL1A", "result": 11.7, "unit": "µM"},
      {"measurement": "Logτ", "setting": "SNAP-D2SR W100^ECL1A", "result": "-0.43 ± 0.06"},
      {"measurement": "pKB", "setting": "SNAP-D2SR W100^ECL1A", "result": "4.93 ± 0.28"},
      {"measurement": "τ", "setting": "SNAP-D2SR W100^ECL1A", "result": 0.37},
      {"measurement": "Logαβ", "setting": "SNAP-D2SR W100^ECL1A; with DA", "result": "1.54 ± 0.10"},
      {"measurement": "αβ", "setting": "SNAP-D2SR W100^ECL1A; with DA", "result": 34.7},
      {"measurement": "D2 PAM2 log τ", "setting": "SNAP-D2SR F50^1.48A", "result": "–1.35 ± 0.22"},
      {"measurement": "D2 PAM2 pKB", "setting": "SNAP-D2SR F50^1.48A", "result": "5.32 ± 0.28"},
      {"measurement": "D2 PAM2 τ", "setting": "SNAP-D2SR F50^1.48A", "result": 0.04},
      {"measurement": "fold decrease in cooperativity with DA", "setting": "SNAP-D2SR F50^1.48A; cAMP", "result": 7, "unit": "fold"},
      {"measurement": "Kb", "setting": "SNAP-D2SR F50^1.48A; [4]", "result": 5, "unit": "µM"},
      {"measurement": "D2 PAM2 log αβ", "setting": "SNAP-D2SR F50^1.48A; with DA", "result": "0.39 ± 0.07"},
      {"measurement": "D2 PAM2 αβ", "setting": "SNAP-D2SR F50^1.48A; with DA", "result": 2.5},
      {"measurement": "D2 PAM2 log τ", "setting": "SNAP-D2SR I128^3.46A [2]", "result": "–3"},
      {"measurement": "D2 PAM2 pKB", "setting": "SNAP-D2SR I128^3.46A [2]", "result": "4.90 ± 0.18"},
      {"measurement": "Kb", "setting": "SNAP-D2SR I128^3.46A [2]; [4]", "result": 13, "unit": "µM"},
      {"measurement": "D2 PAM2 log αβ", "setting": "SNAP-D2SR I128^3.46A [2]; with DA", "result": "1.63 ± 0.17"},
      {"measurement": "D2 PAM2 αβ", "setting": "SNAP-D2SR I128^3.46A [2]; with DA", "result": 43},
      {"measurement": "fold shift + 10 μM PAM", "setting": "SNAP-D2SR G51^1.49A; shift of DA IC50", "result": 0.8, "unit": "fold"},
      {"measurement": "ΔpIC50 + 10 μM PAM", "setting": "SNAP-D2SR G51^1.49A; shift of DA pIC50", "result": "–0.08 ± 0.17"},
      {"measurement": "D2 PAM2 log τ", "setting": "SNAP-D2SR N52^1.50A", "result": "0.23 ± 0.07"},
      {"measurement": "D2 PAM2 pKB", "setting": "SNAP-D2SR N52^1.50A", "result": "4.89 ± 0.21"},
      {"measurement": "D2 PAM2 τ", "setting": "SNAP-D2SR N52^1.50A", "result": 1.69},
      {"measurement": "Kb", "setting": "SNAP-D2SR N52^1.50A; [4]", "result": 12.8, "unit": "µM"},
      {"measurement": "D2 PAM2 log αβ", "setting": "SNAP-D2SR N52^1.50A; with DA", "result": "1.18 ± 0.28"},
      {"measurement": "D2 PAM2 αβ", "setting": "SNAP-D2SR N52^1.50A; with DA", "result": 15}
    ]}
  ]
}
